In PMC4490784, “Compensatory induction of MYC expression by sustained CDK9 inhibition via a BRD4-dependent mechanism” (eLife, 2015):

Tests used:
Experiment in all cases: KINOMEscan binding assay
PLK4 = molecular target: T1, PLK4 (Homo sapiens, UniProt O00444); details: read-out: % Retention on Solid Support
T1 construct: purchased DiscoveRx KINOMEscan
Outline: (§1)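 Panel of >400 kinases screened by active-site competition binding, compound at 1 and 10 µM.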

MST4 = molecular target: T2, MST4 (Homo sapiens, UniProt Q9P289); details: read-out: % Retention on Solid Support
T2 construct: purchased DiscoveRx KINOMEscan
Outline: as §1

PKMYT1 = molecular target: T3, PKMYT1 (Homo sapiens, UniProt Q99640)
T3 construct: purchased DiscoveRx KINOMEscan
Outline: as §1

ACVR1 = molecular target: T4, ACVR1 (Homo sapiens, UniProt Q04771); details: read-out: % Retention on Solid Support
T4 construct: purchased DiscoveRx KINOMEscan
Outline: as §1

MAPKAPK2 = molecular target: T5, MAPKAPK2 (Homo sapiens, UniProt P49137); details: read-out: % Retention on Solid Support
T5 construct: purchased DiscoveRx KINOMEscan
Outline: as §1

CSNK1G1 = molecular target: T6, CSNK1G1 (Homo sapiens, UniProt Q9HCP0)
T6 construct: purchased DiscoveRx KINOMEscan
Outline: as §1

IKK-beta = molecular target: T7, IKK-beta (Homo sapiens, UniProt O14920); details: read-out: % Retention on Solid Support
T7 construct: purchased DiscoveRx KINOMEscan
Outline: as §1

CDC2L2 = molecular target: T8, CDC2L2 (Homo sapiens, UniProt Q9UQ88); details: read-out: % Retention on Solid Support
T8 construct: purchased DiscoveRx KINOMEscan
Outline: as §1

PRKG1 = molecular target: T9, PRKG1 (Homo sapiens, UniProt Q13976); details: read-out: % Retention on Solid Support
T9 construct: purchased DiscoveRx KINOMEscan
Outline: as §1

BRSK1 = molecular target: T10, BRSK1 (Homo sapiens, UniProt Q8TDC3); details: read-out: % Retention on Solid Support
T10 construct: purchased DiscoveRx KINOMEscan
Outline: as §1

PIK3CD = molecular target: T11, PIK3CD (Homo sapiens, UniProt O00329); details: read-out: % Retention on Solid Support
T11 construct: purchased DiscoveRx KINOMEscan
Outline: as §1

LTK = molecular target: T12, LTK (Homo sapiens, UniProt P29376); details: read-out: % Retention on Solid Support
T12 construct: purchased DiscoveRx KINOMEscan
Outline: as §1

KIT(V559D,T670I) = molecular target: T13, KIT(V559D,T670I) (Homo sapiens, UniProt P10721, T670I/V559D); details: read-out: % Retention on Solid Support
T13 construct: purchased DiscoveRx KINOMEscan
Outline: as §1

SIK = molecular target: T14, SIK (Homo sapiens, UniProt P57059)
T14 construct: purchased DiscoveRx KINOMEscan
Outline: as §1

PHKG1 = molecular target: T15, PHKG1 (Homo sapiens, UniProt Q16816); details: read-out: % Retention on Solid Support
T15 construct: purchased DiscoveRx KINOMEscan
Outline: as §1

EGFR(E746-A750del) = molecular target: T16, EGFR(E746-A750del) (Homo sapiens, UniProt P00533, DEL746-750)
T16 construct: purchased DiscoveRx KINOMEscan
Outline: as §1

ABL2 = molecular target: T17, ABL2 (Homo sapiens, UniProt P42684); details: read-out: % Retention on Solid Support
T17 construct: purchased DiscoveRx KINOMEscan
Outline: as §1

FLT3(R834Q) = molecular target: T18, FLT3(R834Q) (Homo sapiens, UniProt P36888, R834Q); details: 1 µM i-CDK9; read-out: % Retention on Solid Support
T18 construct: purchased DiscoveRx KINOMEscan
Outline: as §1

CSNK1E = molecular target: T19, CSNK1E (Homo sapiens, UniProt P49674); details: read-out: % Retention on Solid Support
T19 construct: purchased DiscoveRx KINOMEscan
Outline: as §1

PRKD2 = molecular target: T20, PRKD2 (Homo sapiens, UniProt Q9BZL6); details: read-out: % Retention on Solid Support
T20 construct: purchased DiscoveRx KINOMEscan
Outline: as §1

VEGFR2 = molecular target: T21, VEGFR2 (Homo sapiens, UniProt P35968); details: read-out: % Retention on Solid Support
T21 construct: purchased DiscoveRx KINOMEscan
Outline: as §1

CDK5 = molecular target: T22, CDK5 (Homo sapiens, UniProt Q00535); details: read-out: % Retention on Solid Support
T22 construct: purchased DiscoveRx KINOMEscan
Outline: as §1

[1] = molecular target: T23, TYK2(JH1domain-catalytic) (Homo sapiens, UniProt P29597)
T23 construct: TYK2(JH1domain-catalytic); purchased DiscoveRx KINOMEscan
Outline: as §1

PCTK3 = molecular target: T24, PCTK3 (Homo sapiens, UniProt Q07002); details: read-out: % Retention on Solid Support
T24 construct: purchased DiscoveRx KINOMEscan
Outline: as §1

EPHB1 = molecular target: T25, EPHB1 (Homo sapiens, UniProt P54762); details: read-out: % Retention on Solid Support
T25 construct: purchased DiscoveRx KINOMEscan
Outline: as §1

SNARK = molecular target: T26, SNARK (Homo sapiens, UniProt Q9H093)
T26 construct: purchased DiscoveRx KINOMEscan
Outline: as §1

AMPK-alpha2 = molecular target: T27, AMPK-alpha2 (Homo sapiens, UniProt P54646); details: read-out: % Retention on Solid Support
T27 construct: purchased DiscoveRx KINOMEscan
Outline: as §1

MAP3K15 = molecular target: T28, MAP3K15 (Homo sapiens, UniProt Q6ZN16); details: read-out: % Retention on Solid Support
T28 construct: purchased DiscoveRx KINOMEscan
Outline: as §1

MST3 = molecular target: T29, MST3 (Homo sapiens, UniProt Q9Y6E0)
T29 construct: purchased DiscoveRx KINOMEscan
Outline: as §1

T9 sequence (Q13976 whole entry): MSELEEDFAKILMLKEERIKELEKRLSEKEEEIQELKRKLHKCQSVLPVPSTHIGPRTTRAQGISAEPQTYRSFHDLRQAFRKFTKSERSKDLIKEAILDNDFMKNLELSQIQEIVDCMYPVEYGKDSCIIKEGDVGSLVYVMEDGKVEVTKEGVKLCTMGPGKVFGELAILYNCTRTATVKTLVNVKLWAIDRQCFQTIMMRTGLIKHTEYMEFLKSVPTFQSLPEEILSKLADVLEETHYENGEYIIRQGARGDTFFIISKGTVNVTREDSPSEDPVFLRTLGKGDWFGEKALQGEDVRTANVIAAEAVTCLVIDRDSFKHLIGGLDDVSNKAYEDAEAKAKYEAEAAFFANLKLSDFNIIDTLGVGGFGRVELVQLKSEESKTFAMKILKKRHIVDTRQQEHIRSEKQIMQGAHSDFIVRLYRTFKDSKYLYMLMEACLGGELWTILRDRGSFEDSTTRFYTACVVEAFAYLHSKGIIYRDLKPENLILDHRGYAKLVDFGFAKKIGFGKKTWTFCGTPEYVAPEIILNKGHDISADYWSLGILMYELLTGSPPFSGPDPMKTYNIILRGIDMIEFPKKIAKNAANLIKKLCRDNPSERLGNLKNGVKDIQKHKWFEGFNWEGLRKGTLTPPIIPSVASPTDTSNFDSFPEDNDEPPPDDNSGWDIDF
T3 sequence (Q99640 whole entry): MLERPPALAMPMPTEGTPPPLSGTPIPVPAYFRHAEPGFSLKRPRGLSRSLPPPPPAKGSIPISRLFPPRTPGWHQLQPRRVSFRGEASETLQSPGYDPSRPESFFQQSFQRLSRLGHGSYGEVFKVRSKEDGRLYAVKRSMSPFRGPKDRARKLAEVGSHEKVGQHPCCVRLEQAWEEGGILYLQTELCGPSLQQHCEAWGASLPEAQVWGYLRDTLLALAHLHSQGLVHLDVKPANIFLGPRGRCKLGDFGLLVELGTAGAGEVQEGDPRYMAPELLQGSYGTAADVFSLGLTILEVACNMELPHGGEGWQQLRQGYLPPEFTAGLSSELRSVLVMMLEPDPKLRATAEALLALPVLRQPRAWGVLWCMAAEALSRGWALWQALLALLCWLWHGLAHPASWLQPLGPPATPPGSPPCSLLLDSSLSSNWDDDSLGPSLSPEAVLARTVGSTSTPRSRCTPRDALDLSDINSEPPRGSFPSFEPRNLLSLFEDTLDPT
T1 sequence (O00444 whole entry): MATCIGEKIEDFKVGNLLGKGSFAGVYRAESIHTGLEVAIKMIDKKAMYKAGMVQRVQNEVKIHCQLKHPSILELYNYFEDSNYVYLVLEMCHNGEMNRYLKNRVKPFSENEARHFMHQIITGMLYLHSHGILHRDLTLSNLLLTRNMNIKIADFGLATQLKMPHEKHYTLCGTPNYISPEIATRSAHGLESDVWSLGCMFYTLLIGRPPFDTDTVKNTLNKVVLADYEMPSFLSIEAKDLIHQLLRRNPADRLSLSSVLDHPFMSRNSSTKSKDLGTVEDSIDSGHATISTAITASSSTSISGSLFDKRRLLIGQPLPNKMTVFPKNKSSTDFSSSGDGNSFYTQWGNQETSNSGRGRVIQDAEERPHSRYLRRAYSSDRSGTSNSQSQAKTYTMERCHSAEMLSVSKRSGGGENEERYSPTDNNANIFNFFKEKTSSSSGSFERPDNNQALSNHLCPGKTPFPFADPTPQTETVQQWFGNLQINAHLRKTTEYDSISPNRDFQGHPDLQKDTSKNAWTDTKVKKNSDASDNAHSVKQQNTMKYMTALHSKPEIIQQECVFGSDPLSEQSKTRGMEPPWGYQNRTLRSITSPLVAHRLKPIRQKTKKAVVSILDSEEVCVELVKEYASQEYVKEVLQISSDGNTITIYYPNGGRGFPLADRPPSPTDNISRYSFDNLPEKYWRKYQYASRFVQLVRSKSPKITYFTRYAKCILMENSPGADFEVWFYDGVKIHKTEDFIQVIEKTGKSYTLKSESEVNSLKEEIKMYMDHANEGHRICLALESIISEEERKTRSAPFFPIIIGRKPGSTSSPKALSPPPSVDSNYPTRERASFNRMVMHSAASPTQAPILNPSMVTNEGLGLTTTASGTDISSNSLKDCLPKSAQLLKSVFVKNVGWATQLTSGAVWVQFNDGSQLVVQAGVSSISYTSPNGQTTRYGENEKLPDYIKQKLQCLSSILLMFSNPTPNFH
T28 sequence (Q6ZN16 whole entry): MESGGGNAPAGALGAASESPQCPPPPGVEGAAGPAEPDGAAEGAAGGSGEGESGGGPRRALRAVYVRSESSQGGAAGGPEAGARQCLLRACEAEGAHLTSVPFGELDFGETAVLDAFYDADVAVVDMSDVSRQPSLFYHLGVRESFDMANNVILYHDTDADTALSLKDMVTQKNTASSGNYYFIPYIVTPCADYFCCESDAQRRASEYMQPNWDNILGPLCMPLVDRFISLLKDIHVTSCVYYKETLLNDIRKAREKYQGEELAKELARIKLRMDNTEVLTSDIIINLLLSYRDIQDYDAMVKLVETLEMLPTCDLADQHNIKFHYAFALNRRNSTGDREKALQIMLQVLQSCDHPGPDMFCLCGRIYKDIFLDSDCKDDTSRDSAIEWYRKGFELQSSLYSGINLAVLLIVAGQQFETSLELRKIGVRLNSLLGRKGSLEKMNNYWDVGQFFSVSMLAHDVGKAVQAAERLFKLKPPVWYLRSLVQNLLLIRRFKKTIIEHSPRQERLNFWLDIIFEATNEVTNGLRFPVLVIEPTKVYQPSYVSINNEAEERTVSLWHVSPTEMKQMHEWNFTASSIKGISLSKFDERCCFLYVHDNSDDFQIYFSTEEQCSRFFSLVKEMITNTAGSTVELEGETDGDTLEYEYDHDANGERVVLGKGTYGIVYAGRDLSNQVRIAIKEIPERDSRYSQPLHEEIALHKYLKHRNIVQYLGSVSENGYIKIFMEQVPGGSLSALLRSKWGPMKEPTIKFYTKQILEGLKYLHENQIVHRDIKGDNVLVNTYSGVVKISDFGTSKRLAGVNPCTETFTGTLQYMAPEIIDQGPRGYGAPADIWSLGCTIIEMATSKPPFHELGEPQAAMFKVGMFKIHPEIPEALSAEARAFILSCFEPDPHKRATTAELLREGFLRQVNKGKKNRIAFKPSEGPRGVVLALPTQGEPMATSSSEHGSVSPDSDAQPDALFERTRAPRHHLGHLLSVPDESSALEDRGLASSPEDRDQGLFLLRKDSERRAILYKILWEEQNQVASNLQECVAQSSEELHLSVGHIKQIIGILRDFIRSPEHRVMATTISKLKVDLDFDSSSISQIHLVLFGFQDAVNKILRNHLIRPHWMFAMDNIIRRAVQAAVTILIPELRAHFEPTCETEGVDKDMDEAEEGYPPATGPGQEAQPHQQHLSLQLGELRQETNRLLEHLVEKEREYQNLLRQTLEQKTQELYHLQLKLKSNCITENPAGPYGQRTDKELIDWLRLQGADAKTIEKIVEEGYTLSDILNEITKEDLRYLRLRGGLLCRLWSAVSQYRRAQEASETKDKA
T21 sequence (P35968 20-1356): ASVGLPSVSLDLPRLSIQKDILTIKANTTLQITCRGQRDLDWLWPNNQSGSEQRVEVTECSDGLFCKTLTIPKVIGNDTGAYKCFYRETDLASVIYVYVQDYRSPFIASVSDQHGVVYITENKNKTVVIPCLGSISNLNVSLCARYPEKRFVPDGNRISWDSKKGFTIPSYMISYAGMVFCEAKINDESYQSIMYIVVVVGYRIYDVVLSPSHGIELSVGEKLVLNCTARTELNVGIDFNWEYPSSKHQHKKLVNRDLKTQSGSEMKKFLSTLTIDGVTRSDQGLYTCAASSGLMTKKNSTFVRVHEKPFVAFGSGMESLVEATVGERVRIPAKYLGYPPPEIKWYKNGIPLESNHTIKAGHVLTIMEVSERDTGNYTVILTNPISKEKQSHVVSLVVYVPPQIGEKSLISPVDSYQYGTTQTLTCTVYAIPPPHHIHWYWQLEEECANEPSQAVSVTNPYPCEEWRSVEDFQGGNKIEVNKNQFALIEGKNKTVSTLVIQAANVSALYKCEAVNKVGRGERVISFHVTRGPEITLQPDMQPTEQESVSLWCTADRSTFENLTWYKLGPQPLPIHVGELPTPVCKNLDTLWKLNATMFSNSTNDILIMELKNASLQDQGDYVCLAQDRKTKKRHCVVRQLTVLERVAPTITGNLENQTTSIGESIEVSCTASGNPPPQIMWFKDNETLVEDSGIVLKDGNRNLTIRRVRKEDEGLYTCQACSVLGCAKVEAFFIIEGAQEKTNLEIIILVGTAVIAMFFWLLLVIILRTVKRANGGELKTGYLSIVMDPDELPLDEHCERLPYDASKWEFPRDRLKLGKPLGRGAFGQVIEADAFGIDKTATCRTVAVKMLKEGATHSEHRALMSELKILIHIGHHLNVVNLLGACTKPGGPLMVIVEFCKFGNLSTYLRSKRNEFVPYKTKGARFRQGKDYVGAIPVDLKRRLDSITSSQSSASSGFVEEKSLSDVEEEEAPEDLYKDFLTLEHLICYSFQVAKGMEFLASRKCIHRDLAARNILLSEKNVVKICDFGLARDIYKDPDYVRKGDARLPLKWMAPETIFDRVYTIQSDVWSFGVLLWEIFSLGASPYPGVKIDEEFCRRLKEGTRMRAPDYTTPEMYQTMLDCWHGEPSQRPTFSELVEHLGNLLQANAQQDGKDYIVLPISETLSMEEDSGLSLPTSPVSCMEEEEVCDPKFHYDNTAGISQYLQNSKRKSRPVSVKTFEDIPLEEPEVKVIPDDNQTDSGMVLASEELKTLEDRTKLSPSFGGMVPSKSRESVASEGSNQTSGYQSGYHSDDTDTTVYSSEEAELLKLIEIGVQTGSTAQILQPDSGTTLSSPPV
T22 sequence (Q00535 whole entry): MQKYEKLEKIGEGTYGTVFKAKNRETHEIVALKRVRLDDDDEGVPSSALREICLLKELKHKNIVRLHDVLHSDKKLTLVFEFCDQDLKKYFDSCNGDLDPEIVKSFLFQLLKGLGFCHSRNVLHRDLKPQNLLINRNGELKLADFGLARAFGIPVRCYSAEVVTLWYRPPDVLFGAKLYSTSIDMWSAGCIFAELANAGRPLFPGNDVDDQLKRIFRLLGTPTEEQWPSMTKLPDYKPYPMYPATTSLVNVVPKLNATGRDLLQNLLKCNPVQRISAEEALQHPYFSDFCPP

Q: Which remaining binding at 1 µM (PLK4; 1 µM i-CDK9) does the source give for `N[C@H]1CC[C@H](Nc2cc(-c3cccc(NCc4cccc(F)c4)n3)c(Cl)cn2)CC1` [i-CDK9, N2′-(trans-4-aminocyclohexyl)-5′-chloro-N6-(3-fluorobenzyl)-2,4′-bipyridine-2′,6-diamine] here?
A: 89%

Q: And the remaining binding at 10 µM (PLK4; 10 µM i-CDK9)?
A: 91%

Q: And the remaining binding at 1 µM (MST4; 1 µM i-CDK9)?
A: 100%

Q: And the remaining binding at 10 µM (MST4; 10 µM i-CDK9)?
A: 100%

Q: And the “% Retention on Solid Support” value (PKMYT1; 1 µM i-CDK9)?
A: 100%

Q: What about the “% Retention on Solid Support” value (PKMYT1; 10 µM i-CDK9) of the same compound?
A: 93%

Q: And the remaining binding at 1 µM (ACVR1; 1 µM i-CDK9)?
A: 100%

Q: What about the remaining binding at 10 µM (ACVR1; 10 µM i-CDK9) of the same compound?
A: 100%

Q: And the remaining binding at 1 µM (MAPKAPK2; 1 µM i-CDK9)?
A: 100%

Q: What about the remaining binding at 10 µM (MAPKAPK2; 10 µM i-CDK9) of the same compound?
A: 100%

Q: And the “% Retention on Solid Support” value (CSNK1G1; 1 µM i-CDK9)?
A: 81%

Q: What about the “% Retention on Solid Support” value (CSNK1G1; 10 µM i-CDK9) of the same compound?
A: 93%

Q: What about the remaining binding at 1 µM (IKK-beta; 1 µM i-CDK9) of the same compound?
A: 100%

Q: What about the remaining binding at 10 µM (IKK-beta; 10 µM i-CDK9) of the same compound?
A: 87%

Q: And the remaining binding at 1 µM (CDC2L2; 1 µM i-CDK9)?
A: 100%

Q: What about the remaining binding at 10 µM (CDC2L2; 10 µM i-CDK9) of the same compound?
A: 33%

Q: And the remaining binding at 1 µM (PRKG1; 1 µM i-CDK9)?
A: 81%

Q: What about the remaining binding at 10 µM (PRKG1; 10 µM i-CDK9) of the same compound?
A: 88%

Q: And the remaining binding at 1 µM (BRSK1; 1 µM i-CDK9)?
A: 100%

Q: And the remaining binding at 10 µM (BRSK1; 10 µM i-CDK9)?
A: 89%

Q: What about the remaining binding at 1 µM (PIK3CD; 1 µM i-CDK9) of the same compound?
A: 100%

Q: What about the remaining binding at 10 µM (PIK3CD; 10 µM i-CDK9) of the same compound?
A: 100%

Q: What about the remaining binding at 1 µM (LTK; 1 µM i-CDK9) of the same compound?
A: 92%

Q: What about the remaining binding at 10 µM (LTK; 10 µM i-CDK9) of the same compound?
A: 100%

Q: And the remaining binding at 1 µM (KIT(V559D,T670I); 1 µM i-CDK9)?
A: 95%

Q: What about the remaining binding at 10 µM (KIT(V559D,T670I); 10 µM i-CDK9) of the same compound?
A: 100%

Q: What about the “% Retention on Solid Support” value (SIK; 1 µM i-CDK9) of the same compound?
A: 100%

Q: And the “% Retention on Solid Support” value (SIK; 10 µM i-CDK9)?
A: 100%

Q: What about the remaining binding at 1 µM (PHKG1; 1 µM i-CDK9) of the same compound?
A: 100%

Q: What about the remaining binding at 10 µM (PHKG1; 10 µM i-CDK9) of the same compound?
A: 100%

Q: And the “% Retention on Solid Support” value (EGFR(E746-A750del); 1 µM i-CDK9)?
A: 0%

Q: And the “% Retention on Solid Support” value (EGFR(E746-A750del); 10 µM i-CDK9)?
A: 78%

Q: And the remaining binding at 1 µM (ABL2; 1 µM i-CDK9)?
A: 100%

Q: And the remaining binding at 10 µM (ABL2; 10 µM i-CDK9)?
A: 100%

Q: And the remaining binding at 1 µM (FLT3(R834Q))?
A: 36%

Q: And the remaining binding at 1 µM (CSNK1E; 1 µM i-CDK9)?
A: 100%

Q: And the remaining binding at 10 µM (CSNK1E; 10 µM i-CDK9)?
A: 45%

Q: And the remaining binding at 1 µM (PRKD2; 1 µM i-CDK9)?
A: 88%

Q: What about the remaining binding at 10 µM (PRKD2; 10 µM i-CDK9) of the same compound?
A: 47%

Q: And the remaining binding at 1 µM (VEGFR2; 1 µM i-CDK9)?
A: 83%

Q: What about the remaining binding at 10 µM (VEGFR2; 10 µM i-CDK9) of the same compound?
A: 93%

Q: And the remaining binding at 1 µM (CDK5; 1 µM i-CDK9)?
A: 100%

Q: What about the remaining binding at 10 µM (CDK5; 10 µM i-CDK9) of the same compound?
A: 81%

Q: And the “% Retention on Solid Support” value ([1]; 1 µM i-CDK9)?
A: 62%

Q: And the “% Retention on Solid Support” value ([1]; 10 µM i-CDK9)?
A: 100%

Q: And the remaining binding at 1 µM (PCTK3; 1 µM i-CDK9)?
A: 33%

Q: And the remaining binding at 10 µM (PCTK3; 10 µM i-CDK9)?
A: 0.15%

Q: And the remaining binding at 1 µM (EPHB1; 1 µM i-CDK9)?
A: 100%

Q: What about the remaining binding at 10 µM (EPHB1; 10 µM i-CDK9) of the same compound?
A: 100%

Q: What about the “% Retention on Solid Support” value (SNARK; 1 µM i-CDK9) of the same compound?
A: 100%

Q: And the “% Retention on Solid Support” value (SNARK; 10 µM i-CDK9)?
A: 87%

Q: And the remaining binding at 1 µM (AMPK-alpha2; 1 µM i-CDK9)?
A: 83%

Q: And the remaining binding at 10 µM (AMPK-alpha2; 10 µM i-CDK9)?
A: 88%

Q: What about the remaining binding at 1 µM (MAP3K15; 1 µM i-CDK9) of the same compound?
A: 100%

Q: What about the remaining binding at 10 µM (MAP3K15; 10 µM i-CDK9) of the same compound?
A: 100%

Q: And the “% Retention on Solid Support” value (MST3; 1 µM i-CDK9)?
A: 83%

Q: And the “% Retention on Solid Support” value (MST3; 10 µM i-CDK9)?
A: 90%
